Source: article PMC9260506, “Identification of Highly Cross-Reactive Mimotopes for a Public T Cell Response in Murine Melanoma” (Frontiers in Immunology, 2022)

Experiments:
[1] = molecular target: p15E peptide presented by H-2K^b, refolded pMHC (mouse | human | murine leukemia virus); assay: SPR
[2] = molecular target: 7PPG4 TCR, recombinant soluble (mouse) (UniProt P01849); assay: SPR; conditions: peptide-MHC
[3] = molecular target: 7PPG2 TCR, recombinant soluble (mouse) (UniProt P01849); assay: SPR; conditions: peptide-MHC
CD8^+ T cells = assay: Intracellular cytokine staining of peripheral blood after vaccination; type: in vivo, C57BL/6 mice; conditions: for CD8^+ T cell reactivity to p15E stimulation (ICS): Figure 7C
From the text: MSA and TTR long peptide fusions were produced in house by the Wittrup lab as previously described ([23]). Long peptide-amphiphile fusion vaccines were obtained from Northwestern University Peptide Synthesis Core (p15E and mimotopes) or produced in house by the Irvine lab as previously described (OVA amph) ([16], [22]). Lipo-CpG was produced in house by the Irvine lab as previously described ([16], [22]). […] Mice were primed and then boosted at 2 and 4 weeks following prime (n=5 per group).
One week following each vaccine boost, blood samples were drawn retro-orbitally from each mouse. 50-80 μL was used per well for stimulation with peptide, and excess blood from each group was pooled and used for a positive and negative control well per group. Red blood cells were lysed with ACK lysis buffer (Thermo), and then cells were washed once with FACS buffer. In 100 μL/well RPMI complete media, sample wells were stimulated with 10 μg/mL peptide (p15E, 7PPG2-mim6, or 7PPG4-mim2), and positive control wells were stimulated with 10 ng/mL PMA and 10 μg/mL ionomycin. Cells were stimulated for two hours before 1 uL/well brefeldin A (BD GolgiPlug) was added, and then cells were incubated for an additional four hours. Cells were washed twice with cold PBS and then stained with Zombie Aqua 1:1000 and Fc block 1:100 in 100 μL/well PBS for 15 minutes at room temperature. Cells were then stained with CD8 APC 1:100 in 100 μL/well FACS buffer for 20 minutes at room temperature. Cells were fixed and permeabilized using 100 μL/well of CytoFix/CytoPerm solution (BD) for 20 minutes at 4°C. Following two washes with Perm/Wash buffer (BD), cells were stained with IFN-γ PE and TNF-α AF488 1:75 each in 50 μL/well Perm/Wash buffer for 30 minutes at 4°C. Following two washes with FACS buffer, samples were run on an LSR II (BD) or Cytoflex (Beckman Coulter) and data analyzed in FlowJo v10. Outliers were identified using the ROUT method with Q = 1% (GraphPad Prism 9).

7PPG4 TCR = assay: Steady-state surface plasmon resonance, pMHC on immobilized 7PPG4 TCR; type: binding, mouse; conditions: Figure 5C
From the text: Recombinant soluble TCRs used for yeast library selections and surface plasmon resonance experiments were produced using a baculovirus expression system in Hi5 insect cells. TCR alpha chain extracellular domain sequences were cloned into pAcGP67a vector containing a 3C protease site ([…]) followed by an acidic leucine zipper, AviTag biotinylation site ([…]), and poly-histidine tag (6×His). TCR beta chain extracellular domain sequences were cloned into pAcGP67a vector containing a 3C site followed by a basic leucine zipper and poly-histidine tag. 2 μg of each plasmid was transfected into SF9 insect cells with BestBac 2.0 linearized baculovirus DNA (Expression Systems) using Cellfectin II reagent (Invitrogen). SF9s were then infected with 1:1000 primary transfection supernatant to amplify the virus. Titration of alpha and beta chain viruses was performed to identify the optimal ratio of the two viruses for heterodimer formation. Protein was then produced by large scale infection of Hi5 cells as previously described ([10]). Briefly, secreted protein was purified using HisPur Ni-NTA resin (Thermo) for immobilized metal affinity chromatography (IMAC) and biotinylated overnight at 4°C using biotin (Avidity), ATP, and BirA ligase. […] Biotinylation efficiency was assessed by adding streptavidin (ThermoFisher) to ~2 ug of protein and running an SDS-PAGE gel. […]

[4] = system: 7PPG4-transduced 58^-/- T cells; assay: T cell activation, peptide-loaded DC2.4 co-culture, IL-2 ELISA (7PPG4); type: cell-based, murine; conditions: DC2.4 cells loaded with various peptide concentrations 2-3 h, 24 h co-culture
Procedure: (§1) T cell line generation: For creation of T cell lines, TCR alpha chain was linked to TCR beta chain by a P2A sequence, followed by EGFP fluorescent protein sequence, in the MP71 retroviral vector. 80% confluent HEK293-T cells were transfected with 2 μg of TCR plasmid and 1 μg pCL-Eco helper plasmid with 6 μg (3× DNA mass) PEI (Santa Cruz Biotech) to create retrovirus. 2 days later, the supernatant was then used to transduce CD8^+ 58^-/^- cells with 0.8 μg/mL polybrene (Santa Cruz Biotech). Cells were spinfected at 1000×g and 32°C for 1.5 hours. 2 days later, transduction was assessed by expression of EGFP and by staining with an antibody against murine TCR β chain. If necessary, cells were sorted on EGFP on a FACSAria (BD) to obtain a >95% transduced population.
(§2) DC co-culture: 25,000 DC2.4 cells per well were incubated with various concentrations of peptide in 100 μL RPMI complete media for 2-3 hours before the addition of T cells. 25,000 T cells per well were added in 100 μL RPMI complete media in 96 well plates.
(§3) After 24 hours, plates were spun down at 500×g for 5 minutes, and 2×100 μL samples of supernatant were saved and frozen at -80°C. T cell activation was assessed using mouse IL-2 ELISA kits (Invitrogen), with samples diluted 1:2 - 1:20 for comparison to the standard curve. Absorbance values were measured with a Tecan Infinite m200 Pro plate reader.

B16F10 melanoma cells = assay: Prophylactic vaccination and B16F10 tumor challenge; type: in vivo, C57BL/6 mice
Procedure: (§4) MSA and TTR long peptide fusions were produced in house by the Wittrup lab as previously described ([23]). Long peptide-amphiphile fusion vaccines were obtained from Northwestern University Peptide Synthesis Core (p15E and mimotopes) or produced in house by the Irvine lab as previously described (OVA amph) ([16], [22]). Lipo-CpG was produced in house by the Irvine lab as previously described ([16], [22]). 5 nmol of vaccine and 1.24 nmol of lipo-CpG per injection were used in a volume of 100 μL PBS, sterile filtered, and injected subcutaneously at the tail base, 50 μL per side, using 31G insulin syringes. Mice were primed and then boosted at 2 and 4 weeks following prime (n=5 per group).
Two weeks after the second vaccine boost, 10^5 B16F10 cells in 100 μL PBS were injected subcutaneously on the right flank using 29G insulin syringes. Tumor areas were calculated by multiplying length and width taken by caliper measurement every other day beginning three days post-tumor inoculation. Mice were euthanized when tumor area exceeded 100 mm^2.

p15E-pulsed splenocytes = assay: In vivo killing assay of peptide-pulsed donor splenocytes; set-up: species or system C57BL/6 mice; conditions: day 36 spleens, 24 h after i.v. injection of about 1:1 CFSE-dyed p15E-pulsed and violet-dyed OVA-pulsed splenocytes; amphiphile vaccines days 0, 14, 28; N=3 mice/group
Procedure: as §4
Experimental mice were vaccinated as described above. A separate group of age-matched female C57BL/6 donor mice were euthanized and spleens removed. In a sterile hood, single cell suspensions were created by mashing spleens through 70 μm mesh filters. Red blood cells were lysed using ACK lysis buffer (Thermo), and cells were washed twice with PBS. […] 24 hours later, experimental mice were euthanized and splenocytes analyzed to compare ratios of CFSE-dyed to Violet-dyed cells. Samples were run on a Cytoflex and data analyzed in FlowJo v10.

[5] = system: 7PPG2-transduced 58^-/- T cells; assay: T cell activation, peptide-loaded DC2.4 co-culture, IL-2 ELISA (7PPG2); type: cell-based, murine; conditions: DC2.4 cells loaded with various peptide concentrations 2-3 h, 24 h co-culture
Procedure: as §1, §2, §3

Substance: 7ELG1 TCR, recombinant soluble (from UniProt P01849)
- Kd [1]: 39 µM

Substance: 7PPG2 TCR, recombinant soluble (from UniProt P01849)
- Kd [1]: 23 µM

Substance: 7PPG2-mim6 mimotope () presented by H-2K^b, refolded pMHC (from UniProt P61769 21-119)
- Kd [2]: > 100 µM
- Kd [3]: 19 µM

Substance: 7PPG3 TCR, recombinant soluble (from UniProt P01849)
- Kd [1]: 20 µM

Substance: 7PPG4-mim2 mimotope () presented by H-2K^b, refolded pMHC (from UniProt P61769 21-119)
- Kd [3]: 42 µM

Substance: KSPWFITL [7PPG4-mim2, p15E mimotope identified from yeast display pMHC library selection with 7PPG4 TCR]
- CD8^+ T cell reactivity to 7PPG2-mim6 stimulation (ICS) (CD8^+ T cells; amphiphile vaccine + lipo-CpG, days 21 and 35, Supplementary Figure 7A): some cross reactivity to 7PPG2-mim6 stimulation
- CD8^+ T cells reacting to 7PPG4-mim2 stimulation (ICS) (CD8^+ T cells; day 21, 5 nmol amphiphile vaccine + lipo-CpG, Supplementary Figure 7B, N=5): 40 % of CD8^+ T cells
- CD8^+ T cell reactivity to p15E stimulation (ICS) (CD8^+ T cells; day 35, 5 nmol amphiphile vaccine + 1.24 nmol lipo-CpG, boosts days 14 and 28, N=5): 40%
- affinity for 7PPG4 relative to p15E (7PPG4 TCR; SPR, 5 μM compared to 26 μM): five-fold higher affinity
- T cell activation (IL-2 secretion) [4]: much more potently than p15E
- Autoreactivity in vivo (B16F10 melanoma cells; all in vivo studies with the amphiphile vaccine): did not show evidence of deleterious autoreactivity

Substance: KSPWFTTL [p15E, previously identified MLVenv peptide presented by the class I MHC H-2K^b]
- CD8^+ T cell reactivity to p15E stimulation (ICS) (CD8^+ T cells; days 21 and 35, 5 nmol amphiphile vaccine + lipo-CpG, compared with adjuvant-only control): did not show any significant reactivity compared to the control group
- Fraction of p15E-pulsed cells remaining (p15E-pulsed splenocytes): little difference in fraction of p15E-pulsed cells compared to the control group
- T cell activation (IL-2 secretion) [5]: activated in a dose-dependent manner
- T cell activation (IL-2 secretion) [4]: activated in a dose-dependent manner
- Survival after tumor challenge (B16F10 melanoma cells; first experiment, 1×10^5 B16F10 cells six weeks after prime, amphiphile vaccines, euthanized at tumor area >100 mm^2, N=5, Figure 7F): identical survival curves

Substance: SIINFEKL [OVA]
- CD8^+ T cell reactivity to OVA (ICS) (CD8^+ T cells; killing-assay study, day 35, OVA amphiphile vaccine day 0, boosts days 14 and 28, N=3 mice/group, Supplementary Figure 6B): 20%
- Fraction of p15E-pulsed cells remaining (p15E-pulsed splenocytes): high fraction of p15E-pulsed cells remaining

Substance: SIYRYYGL [2C TCR cognate antigen, control peptide]
- T cell activation (IL-2 secretion) [5]: no activation
- T cell activation (IL-2 secretion) [4]: no activation

Substance: VSPWFNTL [7PPG2-mim6, p15E mimotope identified from yeast display pMHC library selection with 7PPG2 TCR]
- CD8^+ T cell reactivity to 7PPG4-mim2 stimulation (ICS) (CD8^+ T cells; amphiphile vaccine + lipo-CpG, days 21 and 35, Supplementary Figure 7B): minimal reactivity to 7PPG4-mim2
- T cell activation (IL-2 secretion) [5]: much more potently than p15E
- Kd (7PPG4 TCR; mimotope or p15E peptide displayed by H-2K^b as analyte, immobilized TCR, 25°C, steady state): > 100 µM
